Test system: 695427-040-R-J1-PDC complex spheroids, viability percent T/C
Test: Anticancer human tumor 695427-040-R-J1-PDC patient-derived colon adenocarcinoma cell line growth inhibition [GQUAD]
Conditions: for IC50: curve of first compound; for viability, T/C: stronger effect = lower value; active means viability on the fitted dose curve at most 10% of control; inactive means the rest
Procedure, shortened: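 Viability of tumor cells grown as complex spheroids with endothelial and stromal cells, exposed to drug combinations. Top concentration at or near clinical Cmax (else 10 microM), diluted in half-log increments.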

[1] = second compound 0.0316 µM, first compound 0.0316 µM
[2] = second compound 0.0316 µM, first compound 0.1 µM
[3] = second compound 0.0316 µM, first compound 0.316 µM
[4] = second compound 0.0316 µM, first compound 1 µM
[5] = second compound 0.0316 µM, first compound 3.16 µM
[6] = second compound 0.0316 µM, first compound 10 µM
[7] = second compound 0.1 µM, first compound 0.0316 µM
[8] = second compound 0.1 µM, first compound 0.1 µM
[9] = second compound 0.1 µM, first compound 0.316 µM
[10] = second compound 0.1 µM, first compound 1 µM
[11] = second compound 0.1 µM, first compound 3.16 µM
[12] = second compound 0.1 µM, first compound 10 µM
[13] = second compound 0.316 µM, first compound 0.0316 µM
[14] = second compound 0.316 µM, first compound 0.1 µM
[15] = second compound 0.316 µM, first compound 0.316 µM
[16] = second compound 0.316 µM, first compound 1 µM
[17] = second compound 0.316 µM, first compound 3.16 µM
[18] = second compound 0.316 µM, first compound 10 µM
[19] = second compound 1 µM, first compound 0.0316 µM
[20] = second compound 1 µM, first compound 0.1 µM
[21] = second compound 1 µM, first compound 0.316 µM
[22] = second compound 1 µM, first compound 1 µM
[23] = second compound 1 µM, first compound 3.16 µM
[24] = second compound 1 µM, first compound 10 µM
[25] = second compound 3.16 µM, first compound 0.0316 µM
[26] = second compound 3.16 µM, first compound 0.1 µM
[27] = second compound 3.16 µM, first compound 0.316 µM
[28] = second compound 3.16 µM, first compound 1 µM
[29] = second compound 3.16 µM, first compound 3.16 µM
[30] = second compound 3.16 µM, first compound 10 µM
[31] = second compound 10 µM, first compound 0.0316 µM
[32] = second compound 10 µM, first compound 0.1 µM
[33] = second compound 10 µM, first compound 0.316 µM
[34] = second compound 10 µM, first compound 1 µM
[35] = second compound 10 µM, first compound 3.16 µM
[36] = second compound 10 µM, first compound 10 µM
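Further: spheroids exposed to compounds for seven days before readout.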

C=CC(=O)N1CCN(c2nc(=O)n(-c3c(C)ccnc3C(C)C)c3nc(-c4c(O)cccc4F)c(F)cc23)C(C)C1 (stereo unspecified) + Cc1cnc(CNC(=O)c2c(=O)c3ccc(N4CCCN(C)CC4)nc3n3c2sc2ccccc23)cn1
> 10000 nM: IC50 (second compound 0.0316 µM) | IC50 (second compound 0.1 µM) | IC50 (second compound 0.316 µM) | IC50 (second compound 1 µM)
inactive: viability, T/C [1] 103% | viability, T/C [2] 77% | viability, T/C [3] 95.1% | viability, T/C [4] 68.5% | viability, T/C [5] 75.7% | viability, T/C [6] 71.6% | viability, T/C [7] 89.2% | viability, T/C [8] 81.7% | viability, T/C [9] 82.3% | viability, T/C [10] 67.7% | viability, T/C [11] 102% | viability, T/C [12] 90.9% | viability, T/C [13] 85.7% | viability, T/C [14] 78.7% | viability, T/C [15] 70.5% | viability, T/C [16] 73.9% | viability, T/C [17] 92.6% | viability, T/C [18] 83.8% | viability, T/C [19] 67.6% | viability, T/C [20] 59.4% | viability, T/C [21] 60% | viability, T/C [22] 65.1% | viability, T/C [23] 77.6% | viability, T/C [24] 79.7% | viability, T/C [25] 37.7% | viability, T/C [26] 50.9% | viability, T/C [27] 54.2% | viability, T/C [28] 54.4% | viability, T/C [29] 64.1% | viability, T/C [30] 57.5% | viability, T/C [31] 34.2% | viability, T/C [32] 41.6% | viability, T/C [33] 44.5% | viability, T/C [34] 44.7% | viability, T/C [35] 58.6% | viability, T/C [36] 49.7%
< 31.6 nM: IC50 (second compound 3.16 µM) | IC50 (second compound 10 µM)

CC(C)n1c(=O)n(C)c2cnc3cc(F)c(-c4ccc(OCCCN5CCCCC5)nc4)cc3c21 + Cc1cnc(CNC(=O)c2c(=O)c3ccc(N4CCCN(C)CC4)nc3n3c2sc2ccccc23)cn1
< 31.6 nM: IC50 (second compound 10 µM)
2610 nM: IC50 (second compound 3.16 µM)
inactive: viability, T/C [1] 80.7% | viability, T/C [2] 80.8% | viability, T/C [3] 88% | viability, T/C [4] 80.9% | viability, T/C [5] 84.6% | viability, T/C [6] 56% | viability, T/C [7] 87.1% | viability, T/C [8] 76.8% | viability, T/C [9] 91.7% | viability, T/C [10] 66.3% | viability, T/C [11] 84.6% | viability, T/C [12] 51.5% | viability, T/C [13] 89% | viability, T/C [14] 49.6% | viability, T/C [15] 75.8% | viability, T/C [16] 71.6% | viability, T/C [17] 85.4% | viability, T/C [18] 56.3% | viability, T/C [19] 90% | viability, T/C [20] 64.4% | viability, T/C [21] 69.9% | viability, T/C [22] 68.6% | viability, T/C [23] 73.5% | viability, T/C [24] 41.1% | viability, T/C [25] 51.5% | viability, T/C [26] 47.4% | viability, T/C [27] 57.8% | viability, T/C [28] 54.6% | viability, T/C [29] 49% | viability, T/C [30] 20.4% | viability, T/C [31] 43.5% | viability, T/C [32] 40.3% | viability, T/C [33] 45.8% | viability, T/C [34] 42.6% | viability, T/C [35] 43.1%
> 10000 nM: IC50 (second compound 0.0316 µM) | IC50 (second compound 0.1 µM) | IC50 (second compound 0.316 µM)
7260 nM: IC50 (second compound 1 µM)
active: viability, T/C [36] 0.95%

CC1COCCN1c1cc(-c2ccnn2C)c2ccnc(-c3ccn[nH]3)c2n1 (stereo unspecified) + Cc1cnc(CNC(=O)c2c(=O)c3ccc(N4CCCN(C)CC4)nc3n3c2sc2ccccc23)cn1
68.4 nM: IC50 (second compound 0.1 µM)
active: viability, T/C [36] 1.36%
120 nM: IC50 (second compound 0.0316 µM)
inactive: viability, T/C [1] 62.7% | viability, T/C [2] 52% | viability, T/C [3] 38.8% | viability, T/C [4] 29.9% | viability, T/C [5] 28.1% | viability, T/C [6] 26.6% | viability, T/C [7] 59.9% | viability, T/C [8] 44.5% | viability, T/C [9] 36.2% | viability, T/C [10] 25.6% | viability, T/C [11] 29.4% | viability, T/C [12] 29.2% | viability, T/C [13] 69.3% | viability, T/C [14] 43.2% | viability, T/C [15] 37.3% | viability, T/C [16] 28% | viability, T/C [17] 30% | viability, T/C [18] 24.9% | viability, T/C [19] 58.8% | viability, T/C [20] 35.6% | viability, T/C [21] 34.1% | viability, T/C [22] 22.7% | viability, T/C [23] 27.7% | viability, T/C [24] 14.8% | viability, T/C [25] 21.8% | viability, T/C [26] 31.4% | viability, T/C [27] 28.9% | viability, T/C [28] 20.6% | viability, T/C [29] 20.5% | viability, T/C [30] 11.5% | viability, T/C [31] 24.9% | viability, T/C [32] 19.6% | viability, T/C [33] 24.8% | viability, T/C [34] 16.6% | viability, T/C [35] 13.6%
< 31.6 nM: IC50 (second compound 3.16 µM) | IC50 (second compound 10 µM)
51.9 nM: IC50 (second compound 1 µM)
79.2 nM: IC50 (second compound 0.316 µM)
